The text below walks through data of ChEMBL document CHEMBL3425491, “Development of novel ACK1/TNK2 inhibitors using a fragment-based approach” (J Med Chem, 2015).

≈ marks a conversion by molar mass, not a printed value. Calls of active or inactive are those of the source. The calls are words filed in the database; no cut-off is given here.

The target of data set [1] is T1, Activated CDC42 kinase 1 (Homo sapiens, UniProt Q07912). In words: Inhibition of human ACK1 kinase activity using biotinylated ATGRYYAMKIL - AKT peptide substrate assessed as phosphorylation at 10 uM by ELISA. The format is single protein. On the technique in general: ELISA stands for enzyme-linked immunosorbent assay.
Target sequence in this assay (Q07912 whole entry, looked up): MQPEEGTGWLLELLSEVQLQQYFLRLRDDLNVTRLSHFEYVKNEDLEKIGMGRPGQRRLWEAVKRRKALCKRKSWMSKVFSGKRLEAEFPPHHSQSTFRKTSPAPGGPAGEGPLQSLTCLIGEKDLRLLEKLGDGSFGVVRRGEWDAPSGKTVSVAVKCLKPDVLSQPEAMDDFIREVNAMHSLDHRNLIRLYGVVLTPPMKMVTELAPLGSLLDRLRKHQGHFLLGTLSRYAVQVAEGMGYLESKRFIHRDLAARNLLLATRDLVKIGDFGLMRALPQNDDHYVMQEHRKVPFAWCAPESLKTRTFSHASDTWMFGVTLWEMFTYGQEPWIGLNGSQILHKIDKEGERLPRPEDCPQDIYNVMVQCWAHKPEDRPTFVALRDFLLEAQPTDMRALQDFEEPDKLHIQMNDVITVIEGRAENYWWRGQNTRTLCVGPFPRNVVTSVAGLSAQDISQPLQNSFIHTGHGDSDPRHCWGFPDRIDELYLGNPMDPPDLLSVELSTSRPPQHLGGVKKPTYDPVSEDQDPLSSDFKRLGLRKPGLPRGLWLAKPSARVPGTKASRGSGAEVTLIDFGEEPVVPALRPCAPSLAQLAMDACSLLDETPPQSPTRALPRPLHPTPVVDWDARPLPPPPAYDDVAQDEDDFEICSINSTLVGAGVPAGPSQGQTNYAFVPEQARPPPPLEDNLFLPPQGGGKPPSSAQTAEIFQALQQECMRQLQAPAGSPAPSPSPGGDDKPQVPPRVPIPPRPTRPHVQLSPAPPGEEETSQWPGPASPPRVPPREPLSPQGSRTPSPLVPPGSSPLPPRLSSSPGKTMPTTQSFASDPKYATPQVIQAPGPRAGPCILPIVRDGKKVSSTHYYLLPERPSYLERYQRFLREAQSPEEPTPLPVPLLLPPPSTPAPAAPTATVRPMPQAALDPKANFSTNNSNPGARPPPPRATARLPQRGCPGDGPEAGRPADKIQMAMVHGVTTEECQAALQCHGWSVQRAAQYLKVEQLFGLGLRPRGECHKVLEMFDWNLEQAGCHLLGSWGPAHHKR
Data set [2] concerns the target Glycogen synthase kinase-3 alpha (Homo sapiens) (UniProt P49840). Particulars: at 1 µM.
For data set [3], the target named is Mitogen-activated protein kinase 3 (Homo sapiens) (UniProt P27361). The data set is described as follows: Inhibition of human ERK1 using myelin basic protein substrate at 1 uM by 33P Hotspot assay.
Data set [4] has as its target Proto-oncogene tyrosine-protein kinase ROS (Homo sapiens, UniProt P08922). The data set is described as follows: Inhibition of human ROS/ROS1 using KKKSPGEYVNIEFG peptide substrate by 33P Hotspot assay.
Data set [5] addresses T2, Tyrosine-protein kinase JAK2 (Homo sapiens, UniProt O60674). In words: Inhibition of human JAK2 using poly[Glu:Tyr] (4:1) peptide substrate at 1 uM by 33P Hotspot assay.
Data set [6] concerns the target Serine/threonine-protein kinase pim-1 (Homo sapiens) (UniProt P11309). In words: Inhibition of human PIM1 using KKRNRTLTK peptide substrate at 1 uM by 33P Hotspot assay.
Data set [7] deals with High affinity nerve growth factor receptor (Homo sapiens) (UniProt P04629). In words: Inhibition of human TRKA using poly[Glu:Tyr] (4:1) peptide substrate at 1 uM by 33P Hotspot assay.
A further data set relates to Plasma. In words: Half life in human plasma. Type of data set: ADME, cell-free.
Data set [8] has as its target Platelet-derived growth factor receptor alpha (Homo sapiens) (UniProt P16234). The data set is described as follows: Inhibition of human PDGFRalpha using poly[Glu:Tyr] (4:1) peptide substrate at 1 uM by 33P Hotspot assay.
Data set [9] deals with Wee1-like protein kinase (Homo sapiens) (UniProt P30291). The data set is described as follows: Inhibition of human WEE1 using myelin basic protein substrate at 1 uM by 33P Hotspot assay.
In data set [10] the target is Angiopoietin-1 receptor (Homo sapiens) (UniProt Q02763). The data set is described as follows: Inhibition of human TIE2/TEK using poly[Glu:Tyr] (4:1) peptide substrate at 1 uM by 33P Hotspot assay.
Data set [11] concerns the target Receptor tyrosine-protein kinase erbB-2 (Homo sapiens) (UniProt P04626). In words: Inhibition of human ERBB2/HER2 using poly[Glu:Tyr] (4:1) peptide substrate at 1 uM by 33P Hotspot assay.
Data set [12] deals with T3, Non-receptor tyrosine-protein kinase TYK2 (Homo sapiens, UniProt P29597). In words: Inhibition of human TYK2 using KKSRGDYMTMQIG peptide substrate at 1 uM by 33P Hotspot assay.
T3 sequence (P29597 whole entry): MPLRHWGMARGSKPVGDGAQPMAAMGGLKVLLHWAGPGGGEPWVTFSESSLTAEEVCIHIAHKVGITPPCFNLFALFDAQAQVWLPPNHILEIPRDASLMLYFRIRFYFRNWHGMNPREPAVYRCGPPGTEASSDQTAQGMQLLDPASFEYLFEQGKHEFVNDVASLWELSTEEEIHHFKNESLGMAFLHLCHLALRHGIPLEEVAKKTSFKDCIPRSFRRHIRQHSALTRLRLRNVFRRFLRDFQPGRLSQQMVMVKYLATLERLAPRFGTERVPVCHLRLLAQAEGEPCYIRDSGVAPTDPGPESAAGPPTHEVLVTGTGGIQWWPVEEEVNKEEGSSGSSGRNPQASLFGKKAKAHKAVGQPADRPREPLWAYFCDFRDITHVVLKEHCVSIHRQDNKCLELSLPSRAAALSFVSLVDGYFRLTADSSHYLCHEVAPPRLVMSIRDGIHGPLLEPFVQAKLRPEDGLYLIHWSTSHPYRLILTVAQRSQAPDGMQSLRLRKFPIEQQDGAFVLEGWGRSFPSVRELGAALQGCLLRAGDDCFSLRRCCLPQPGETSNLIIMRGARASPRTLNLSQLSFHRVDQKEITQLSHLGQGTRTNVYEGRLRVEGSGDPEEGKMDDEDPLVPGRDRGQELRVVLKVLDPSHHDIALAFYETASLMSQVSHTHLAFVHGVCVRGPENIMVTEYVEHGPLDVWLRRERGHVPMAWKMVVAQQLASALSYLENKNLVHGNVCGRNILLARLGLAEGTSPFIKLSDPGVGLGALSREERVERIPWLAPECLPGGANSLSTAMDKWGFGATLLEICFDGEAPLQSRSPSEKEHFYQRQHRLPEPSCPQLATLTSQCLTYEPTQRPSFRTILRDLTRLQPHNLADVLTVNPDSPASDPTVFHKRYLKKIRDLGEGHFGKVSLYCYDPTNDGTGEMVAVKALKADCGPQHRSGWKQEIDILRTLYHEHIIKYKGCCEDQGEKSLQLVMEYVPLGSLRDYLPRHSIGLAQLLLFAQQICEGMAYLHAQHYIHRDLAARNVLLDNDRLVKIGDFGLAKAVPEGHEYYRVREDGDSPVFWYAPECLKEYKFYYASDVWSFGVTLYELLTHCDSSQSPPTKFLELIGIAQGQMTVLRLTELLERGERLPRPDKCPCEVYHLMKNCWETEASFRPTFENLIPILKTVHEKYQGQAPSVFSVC
The target of data set [13] is Tyrosine-protein kinase BTK (Homo sapiens) (UniProt Q06187). In words: Inhibition of human BTK using […] peptide substrate at 1 uM by 33P Hotspot assay.
For data set [14], the target named is RAC-alpha serine/threonine-protein kinase (Homo sapiens) (UniProt P31749). The data set is described as follows: Inhibition of human AKT1 using KGSGSGRPRTSSFAEG peptide substrate at 1 uM by 33P Hotspot assay.
The target in data set [15] is T2, Tyrosine-protein kinase JAK2. The data set is described as follows: Inhibition of human JAK2 using poly[Glu:Tyr] (4:1) peptide substrate by 33P Hotspot assay.
Data set [16] in a line: Solubility in PBS with 10% DMSO. The format is physicochemical. Particulars: buffer.
The next data set concerns LNCaP. In words: cells. Particulars: Homo sapiens, 72 h.
In data set [17] the target is Hepatocyte growth factor receptor (Homo sapiens) (UniProt P08581). In words: Inhibition of human c-MET using KKKSPGEYVNIEFG peptide substrate at 1 uM by 33P Hotspot assay.
Another data set in a line: cells. Particulars: Homo sapiens, VCaP, 72 h.
The target of data set [18] is Serine/threonine-protein kinase Chk1 (Homo sapiens, UniProt O14757). The data set is described as follows: Inhibition of human CHK1 using KKKVSRSGLYRSPSMPENLNRPR peptide substrate by 33P Hotspot assay.
In data set [19] the target is Tyrosine-protein kinase FRK (Homo sapiens) (UniProt P42685). The data set is described as follows: Inhibition of human FRK/PTK5 using poly[Glu:Tyr] (4:1) peptide substrate at 1 uM by 33P Hotspot assay.
Chain of Tyrosine-protein kinase FRK (Homo sapiens) (P42685 whole entry): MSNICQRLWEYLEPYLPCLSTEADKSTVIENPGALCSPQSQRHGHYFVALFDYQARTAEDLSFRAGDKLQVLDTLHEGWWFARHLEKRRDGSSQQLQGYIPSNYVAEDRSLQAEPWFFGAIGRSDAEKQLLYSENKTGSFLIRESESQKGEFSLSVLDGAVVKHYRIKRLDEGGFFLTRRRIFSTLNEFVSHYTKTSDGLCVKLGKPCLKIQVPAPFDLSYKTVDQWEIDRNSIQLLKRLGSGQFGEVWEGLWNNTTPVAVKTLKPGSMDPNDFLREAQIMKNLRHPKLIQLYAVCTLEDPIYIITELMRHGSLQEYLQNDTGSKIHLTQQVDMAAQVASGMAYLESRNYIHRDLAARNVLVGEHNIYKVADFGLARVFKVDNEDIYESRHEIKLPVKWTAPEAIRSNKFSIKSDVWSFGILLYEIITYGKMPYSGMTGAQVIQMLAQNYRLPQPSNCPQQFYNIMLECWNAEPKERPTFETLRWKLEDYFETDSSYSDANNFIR
Data set [20] addresses Tyrosine-protein kinase Lck (Homo sapiens, UniProt P06239).
The target in data set [21] is Inhibitor of nuclear factor kappa-B kinase subunit alpha (Homo sapiens) (UniProt O15111). In words: Inhibition of human IKKa/CHUK using KKKKERLLDDRHDSGLDSMKDEE peptide substrate at 1 uM by 33P Hotspot assay.
Data set [22] deals with Mitogen-activated protein kinase kinase kinase 8 (Homo sapiens) (UniProt P41279). In words: Inhibition of human COT1/MAP3K8 using MEK1 (K97R) substrate at 1 uM by 33P Hotspot assay.
In data set [23] the target is T3, Non-receptor tyrosine-protein kinase TYK2. In words: Inhibition of human TYK2 using KKSRGDYMTMQIG peptide substrate by 33P Hotspot assay.
The target in data set [24] is T4, Fibroblast growth factor receptor 1 (Homo sapiens, UniProt P11362). In words: Inhibition of human FGFR1 using KKKSPGEYVNIEFG peptide substrate by 33P Hotspot assay.
In data set [25] the target is Serine/threonine-protein kinase Chk1 (Homo sapiens) (UniProt O14757). The data set is described as follows: Inhibition of human CHK1 using KKKVSRSGLYRSPSMPENLNRPR peptide substrate at 1 uM by 33P Hotspot assay.
Data set [26] concerns the target Insulin receptor (Homo sapiens) (UniProt P06213). In words: Inhibition of human IR using poly[Glu:Tyr] (4:1) peptide substrate at 1 uM by 33P Hotspot assay.
The target in data set [27] is Tyrosine-protein kinase CSK (Homo sapiens) (UniProt P41240). The data set is described as follows: Inhibition of human CSK using poly[Glu:Tyr] (4:1) peptide substrate at 1 uM by 33P Hotspot assay.
Data set [28] deals with Serine/threonine-protein kinase Sgk1 (Homo sapiens) (UniProt O00141). In words: Inhibition of human SGK1 using KGSGSGRPRTSSFAEG peptide substrate at 1 uM by 33P Hotspot assay.
Data set [29] addresses Ephrin type-A receptor 2 (Homo sapiens) (UniProt P29317). The data set is described as follows: Inhibition of human EPHA2 using poly[Glu:Tyr] (4:1) peptide substrate at 1 uM by 33P Hotspot assay.
The test system of another data set is LAPC4. The data set is described as follows: Anticancer activity against human LAPC4 cells assessed as inhibition of cell growth up to 10 uM after 72 hrs by trypan blue exclusion assay. The format is functional, cell-based.
Data set [30] concerns the target Ribosomal protein S6 kinase beta-1 (Homo sapiens) (UniProt P23443). In words: Inhibition of human p70S6K/RPS6KB1 using KKRNRTLTK peptide substrate at 1 uM by 33P Hotspot assay.
Data set [31] addresses Serine/threonine-protein kinase mTOR (Homo sapiens) (UniProt P42345). The data set is described as follows: Inhibition of human mTOR/FRAP1 using 4EBP1 peptide substrate at 1 uM by 33P Hotspot assay.
In data set [32] the target is RAF proto-oncogene serine/threonine-protein kinase (Homo sapiens) (UniProt P04049). The data set is described as follows: Inhibition of human RAF1 using MEK1 (K97R) peptide substrate at 1 uM by 33P Hotspot assay.
For data set [33], the target named is T4, Fibroblast growth factor receptor 1. The data set is described as follows: Inhibition of human FGFR1 using KKKSPGEYVNIEFG peptide substrate at 1 uM by 33P Hotspot assay.
Data set [34] has as its target Epidermal growth factor receptor (Homo sapiens) (UniProt P00533). The data set is described as follows: Inhibition of human EGFR using poly[Glu:Tyr] (4:1) peptide substrate at 1 uM by 33P Hotspot assay.
Data set [35] concerns the target Vascular endothelial growth factor receptor 2 (Homo sapiens) (UniProt P35968). The data set is described as follows: Inhibition of human KDR/VEGFR2 using poly[Glu:Tyr] (4:1) peptide substrate at 1 uM by 33P Hotspot assay.
The target in data set [36] is Tyrosine-protein kinase receptor UFO (Homo sapiens) (UniProt P30530). In words: Inhibition of human AXL using EAIYAAPFAKKK peptide substrate at 1 uM by 33P Hotspot assay.
In data set [37] the target is Serine/threonine-protein kinase TBK1 (Homo sapiens) (UniProt Q9UHD2). The data set is described as follows: Inhibition of human TBK1 using KRRRAL[pS]VASLPGL peptide substrate at 1 uM by 33P Hotspot assay.
The target in data set [38] is Tyrosine-protein kinase ABL1 (Homo sapiens, UniProt P00519). In words: Inhibition of human ABL1 using EAIYAAPFAKKK peptide substrate by 33P Hotspot assay.
Data set [39] has as its target T1, Activated CDC42 kinase 1. The data set is described as follows: Inhibition of ACK1 kinase (unknown origin).
Target sequence in this assay (Q07912 whole entry): as the sequence (Q07912 whole entry, looked up) above

As a reminder, the inhibition is the change of the read-out against control, counted positive when it falls. Broadly, the IC50 is the concentration that inhibits the measured activity by half. Low readings indicate greater potency in that assay, high ones weaker potency in that assay. By solubility is commonly meant the concentration that dissolves in the medium under given conditions. A higher solubility goes with a readily soluble substance.

T2 sequence (O60674 whole entry): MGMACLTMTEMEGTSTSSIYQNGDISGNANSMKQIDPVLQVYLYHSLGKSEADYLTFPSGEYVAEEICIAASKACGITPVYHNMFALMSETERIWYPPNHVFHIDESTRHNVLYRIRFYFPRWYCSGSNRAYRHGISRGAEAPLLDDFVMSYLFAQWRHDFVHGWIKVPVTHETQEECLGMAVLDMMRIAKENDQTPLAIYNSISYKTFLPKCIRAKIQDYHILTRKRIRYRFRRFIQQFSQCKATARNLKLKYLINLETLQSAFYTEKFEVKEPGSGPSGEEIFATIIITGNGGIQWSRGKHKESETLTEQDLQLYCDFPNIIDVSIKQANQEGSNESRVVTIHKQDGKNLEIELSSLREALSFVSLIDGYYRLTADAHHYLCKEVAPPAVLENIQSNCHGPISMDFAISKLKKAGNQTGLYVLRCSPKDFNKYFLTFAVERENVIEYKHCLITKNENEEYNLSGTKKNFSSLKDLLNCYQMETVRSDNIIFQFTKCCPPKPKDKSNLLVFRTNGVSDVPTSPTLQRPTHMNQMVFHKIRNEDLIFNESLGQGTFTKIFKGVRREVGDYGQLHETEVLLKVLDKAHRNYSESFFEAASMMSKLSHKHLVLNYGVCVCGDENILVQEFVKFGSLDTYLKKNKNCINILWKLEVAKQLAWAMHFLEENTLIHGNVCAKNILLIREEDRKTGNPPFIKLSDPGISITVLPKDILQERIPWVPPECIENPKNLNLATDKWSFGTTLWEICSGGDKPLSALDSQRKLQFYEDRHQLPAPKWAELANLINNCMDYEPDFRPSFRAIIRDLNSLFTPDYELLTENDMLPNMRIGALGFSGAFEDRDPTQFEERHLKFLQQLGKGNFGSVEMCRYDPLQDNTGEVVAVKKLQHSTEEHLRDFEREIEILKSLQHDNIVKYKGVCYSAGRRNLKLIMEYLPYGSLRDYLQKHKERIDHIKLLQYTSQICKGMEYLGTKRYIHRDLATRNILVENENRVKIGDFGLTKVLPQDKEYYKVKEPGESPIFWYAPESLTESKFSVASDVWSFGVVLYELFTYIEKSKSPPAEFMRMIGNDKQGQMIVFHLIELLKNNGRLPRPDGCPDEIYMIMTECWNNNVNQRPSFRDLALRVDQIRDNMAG
Chain of Glycogen synthase kinase-3 alpha (Homo sapiens) (P49840 2-483 limits assumed): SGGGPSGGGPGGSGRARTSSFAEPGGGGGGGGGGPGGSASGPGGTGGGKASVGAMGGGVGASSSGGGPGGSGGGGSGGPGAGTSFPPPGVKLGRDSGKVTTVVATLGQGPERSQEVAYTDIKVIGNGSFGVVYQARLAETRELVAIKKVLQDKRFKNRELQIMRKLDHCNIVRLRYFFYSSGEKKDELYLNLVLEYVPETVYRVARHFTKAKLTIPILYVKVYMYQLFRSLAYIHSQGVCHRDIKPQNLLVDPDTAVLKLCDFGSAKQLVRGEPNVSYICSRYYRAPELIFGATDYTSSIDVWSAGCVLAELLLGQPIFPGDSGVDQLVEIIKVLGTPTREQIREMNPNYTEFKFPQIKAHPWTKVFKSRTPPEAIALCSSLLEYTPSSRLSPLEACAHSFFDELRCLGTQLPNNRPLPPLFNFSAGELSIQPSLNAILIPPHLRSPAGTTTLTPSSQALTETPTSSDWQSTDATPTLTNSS
Chain of Ribosomal protein S6 kinase beta-1 (Homo sapiens) (P23443 whole entry, looked up): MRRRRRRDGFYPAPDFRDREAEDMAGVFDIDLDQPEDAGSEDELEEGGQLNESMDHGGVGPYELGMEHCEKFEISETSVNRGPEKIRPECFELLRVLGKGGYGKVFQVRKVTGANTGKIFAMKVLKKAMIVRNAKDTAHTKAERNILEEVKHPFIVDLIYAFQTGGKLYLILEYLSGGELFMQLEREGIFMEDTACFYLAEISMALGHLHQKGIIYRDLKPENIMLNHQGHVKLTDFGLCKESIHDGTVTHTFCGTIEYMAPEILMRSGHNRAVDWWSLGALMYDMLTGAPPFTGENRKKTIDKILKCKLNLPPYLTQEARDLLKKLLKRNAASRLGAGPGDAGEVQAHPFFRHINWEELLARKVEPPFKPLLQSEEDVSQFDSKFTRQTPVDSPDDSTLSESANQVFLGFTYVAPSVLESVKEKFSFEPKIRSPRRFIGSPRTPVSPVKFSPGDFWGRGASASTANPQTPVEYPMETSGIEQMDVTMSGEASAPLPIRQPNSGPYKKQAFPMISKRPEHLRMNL

For the molecule `Brc1cnc(Nc2ccc(N3CCOCC3)cc2)nc1NCC1CCCO1` (racemic), the inhibition at Activated CDC42 kinase 1 [1] was determined as 89%.
Same read-out and setting: then `CN(C)CCNC(=O)CCc1ccc(Nc2ncc(Cl)c(NCC3CCCO3)n2)cc1` (stereo unspecified), with 68%.
`CN1CCN(c2ccc(Nc3ncc(Cl)c(NC[C@H]4CCCO4)n3)cc2)CC1`: the inhibition was 5.1% in [2]; 1.9% in data set [3]; 98.6% in data set [5]; 3.6% in data set [6]; 63.2% in [7]; 42.7% in data set [8]. For the same molecule, the inhibition in data set [9] is 12.4%; in [10] it was 32%; in data set [11], -1.1%; in data set [12], 98.9%; in data set [13], 45.1%; in data set [14] it was 4.7%. Also, the inhibition in [17] is 23.1%; in [19] it was 41.3%; in data set [21], 0.4%; in [22], -7.7%; in data set [25], 84.8%; in data set [26], 46.6%. Besides, the inhibition is 26.3% in data set [27]; 26% in data set [28]; 31.9% in [29]; 24.1% in [30]; -5.6% in data set [31]; -0.8% in [32]. Moreover, the inhibition in data set [33] was 86.4%; in data set [34] it was -2.8%; in [35], 67.3%; in data set [36], 75.9%; in data set [37], 71.8%. The concentration for half-maximal inhibition (IC50) came to 124 nM in data set [4]; 6 nM in data set [15]; 1800 nM in the data set with LNCaP; 2000 nM in the data set “cells”; 154 nM in data set [18]; 136 nM in [20]. Moreover, the IC50 in [23] came out at 5 nM; in [24], 160 nM; in data set [38] it was 206 nM. Further, the t1/2 with Plasma is > 6 h. The same molecule showed a solubility in [16] of 1000 µg/mL (≈ 2480 µM). In the data set on LAPC4, the inhibition result is “Active”.
On to `Oc1ccc(Nc2ncc(Br)c(NCC3CCCO3)n2)cc1F` (stereo unspecified), for which the inhibition at Activated CDC42 kinase 1 [1] is 76%.
For `COc1ccc(Nc2ncc(C(=O)Nc3c(F)cccc3Cl)c(NCC3CCCO3)n2)cc1` (racemic), at Activated CDC42 kinase 1 [1], the inhibition is 68%.
Same read-out and setting: then `O=C(Nc1c(F)cccc1Cl)c1cnc(Nc2ccc(C3CCNCC3)cc2)nc1NCC1CCCO1` (racemic), with 97%.
In the case of `COC(C)(C)CCn1nc(Nc2c(C)cccc2C)c2cnc(Nc3ccccc3)nc21`, at Activated CDC42 kinase 1 [39], the midpoint of inhibition, the IC50, lay at 2 nM.
In the case of `CN1CCN(c2ccc(Nc3ncc(Cl)c(NCC4CCCO4)n3)cc2)CC1` (racemic), the inhibition at Activated CDC42 kinase 1 [1] was 90.5%.
As for `O=C(O)Cc1ccc(Nc2ncc(Cl)c(NCC3CCCO3)n2)cc1` (stereo unspecified), the inhibition at Activated CDC42 kinase 1 [1] worked out at 76.5%.
Regarding `O=C(O)Cc1ccc(Nc2ncc(Br)c(NCC3CCCO3)n2)cc1` (stereo unspecified), on Activated CDC42 kinase 1 [1], the inhibition was 61%.
`Clc1cnc(Nc2ccc(N3CCNCC3)cc2)nc1NCC1CCCO1` (racemic): the inhibition at Activated CDC42 kinase 1 [1] stood at 82%.
Same read-out and setting: in the case of `CN1CCN(c2ccc(Nc3ncc(Br)c(NCC4CCCO4)n3)cc2)CC1` (stereo unspecified) it was 93%; in that of `O=C(O)C1CCN(c2ccc(Nc3ncc(Cl)c(NCC4CCCO4)n3)cc2)CC1` (racemic), 93%; in that of `O=C(O)C1CCN(c2ccc(Nc3ncc(Br)c(NCC4CCCO4)n3)cc2)CC1` (racemic), 85%.
Still for that read-out and setting: then `COc1ccc(Nc2ncc(Br)c(NCC3CCCO3)n2)cc1` (stereo unspecified), with 67%.
Still for that read-out and setting: in the case of `O=C(Nc1c(F)cccc1Cl)c1cnc(Nc2ccc(O)c(F)c2)nc1NCC1CCCO1` (stereo unspecified) it was 66%.
